Data reported in ChEMBL document CHEMBL4219265, “Piperlongumine derivative, CG-06, inhibits STAT3 activity by direct binding to STAT3 and regulating the reactive oxygen species in DU145 prostate carcinoma cells” (Bioorg Med Chem Lett, 2018).

Legend:
[1] = biological target: T1, Signal transducer and activator of transcription 3 (Homo sapiens, UniProt P40763); assay: Inhibition of STAT3 phosphorylation at Tyr705 residues in human DU145 cells assessed as ratio of phosphorylated STAT3 protein level to GAPDH protein level at 5 uM after 6 hrs by Western blot analysis (reference value: 1); type: cell-based
[2] = biological target: T1, Signal transducer and activator of transcription 3; assay: Inhibition of STAT3 phosphorylation at Tyr705 residues in human DU145 cells assessed as ratio of phosphorylated STAT3 protein level to GAPDH protein level at 5 uM after 0.5 hrs by Western blot analysis (reference value: 1); type: cell-based
[3] = biological target: T1, Signal transducer and activator of transcription 3; assay: Binding affinity to STAT3 in human DU145 cell lysates assessed as reduction in pronase-induced STAT3 digestion by measuring ratio of STAT3 protein level to GAPDH protein level at 50 uM incubated for 1 hr followed by 0.05% pronase addition for 10 mins by Western blot analysis (reference value: 0.4)
DU-145 [4] = assay: Cell cycle arrest in human DU145 cells assessed as accumulation at G2/M phase at 5 uM after 12 hrs by flow cytometry (reference value: 18.12%); type: functional
DU-145 [5] = assay: Cell cycle arrest in human DU145 cells assessed as accumulation at S phase at 5 uM after 48 hrs by flow cytometry (reference value: 6.6%); type: functional
DU-145 [6] = assay: Induction of apoptosis in human DU145 cells at 5 uM after 48 hrs by flow cytometry (reference value: 0.61%); type: functional
LNCaP [7] = assay: Effect on total STAT3 protein level in IL-6 stimulated human LNCAP cells assessed as ratio of STAT3 protein level to GAPDH protein level at 5 uM preincubated for 12 hrs followed by IL-6 stimulation for 30 mins by Western blot analysis (reference value: 1.3); type: ADME, cell-based; conditions: 0.5 h
[8] = biological target: T1, Signal transducer and activator of transcription 3; assay: Binding affinity to STAT3 in human DU145 cell lysates assessed as reduction in pronase-induced STAT3 digestion by measuring ratio of STAT3 protein level to GAPDH protein level at 50 uM incubated for 1 hr in absence of pronase by Western blot analysis (reference value: 1)
[9] = biological target: T1, Signal transducer and activator of transcription 3; assay: Binding affinity to STAT3 in human DU145 cell lysates assessed as reduction in pronase-induced STAT3 digestion by measuring ratio of STAT3 protein level to GAPDH protein level at 50 uM incubated for 1 hr followed by 0.1% pronase addition for 10 mins by Western blot analysis (reference value: 0.2)
[10] = biological target: T1, Signal transducer and activator of transcription 3; assay: Binding affinity to STAT3 in human DU145 cell lysates assessed as reduction in pronase-induced STAT3 digestion by measuring ratio of STAT3 protein level to GAPDH protein level at 50 uM incubated for 1 hr followed by 0.05% pronase addition for 10 mins by Western blot analysis (reference value: 1)
[11] = biological target: T1, Signal transducer and activator of transcription 3; assay: Inhibition of STAT3-induced ERK1/2 phosphorylation in human DU145 cells assessed as ratio of phosphorylated ERK1/2 protein level to GAPDH protein level at 5 uM after 3 hrs by Western blot analysis (reference value: 1); type: cell-based
LNCaP [12] = assay: Growth inhibition of human LNCAP cells after 48 hrs by WST-1 assay; type: functional
DU-145 [13] = assay: Cell cycle arrest in human DU145 cells assessed as accumulation at S phase at 5 uM after 24 hrs by flow cytometry (reference value: 6.6%); type: functional
DU-145 [14] = assay: Effect on total STAT3 protein level in human DU145 cells assessed as ratio of STAT3 protein level to GAPDH protein level at 5 uM after 1 hr by Western blot analysis (reference value: 1); type: ADME, cell-based; conditions: du-145, 1 h
DU-145 [15] = assay: Effect on total STAT3 protein level in human DU145 cells assessed as ratio of ERK1/2 protein level to GAPDH protein level at 5 uM preincubated with NAC for 1 hr followed by compound addition for 1 hr by Western blot analysis (reference value: 1); type: ADME, cell-based; conditions: du-145, 1 h
DU-145 [16] = assay: Cell cycle arrest in human DU145 cells assessed as accumulation at G2/M phase at 5 uM after 48 hrs by flow cytometry (reference value: 18.12%); type: functional
[17] = biological target: T1, Signal transducer and activator of transcription 3; assay: Binding affinity to STAT3 in human DU145 cell lysates assessed as reduction in pronase-induced STAT3 digestion by measuring ratio of STAT3 protein level to GAPDH protein level at 50 uM incubated for 1 hr followed by 0.01% pronase addition for 10 mins by Western blot analysis (reference value: 0.7)
DU-145 [18] = assay: Effect on total ERK1/2 protein level in human DU145 cells assessed as ratio of ERK1/2 protein level to GAPDH protein level at 5 uM after 6 hrs by Western blot analysis (reference value: 1); type: ADME, cell-based; conditions: du-145, 6 h
DU-145 [19] = assay: Effect on total STAT3 protein level in human DU145 cells assessed as ratio of STAT3 protein level to GAPDH protein level at 5 uM after 24 hrs by Western blot analysis (reference value: 1); type: ADME, cell-based; conditions: du-145, 24 h
[20] = biological target: T1, Signal transducer and activator of transcription 3; assay: Inhibition of STAT3 phosphorylation at Tyr705 residues in human DU145 cells assessed as ratio of phosphorylated STAT3 protein level to GAPDH protein level at 0.1 uM after 24 hrs by Western blot analysis (reference value: 1); type: cell-based
[21] = biological target: T1, Signal transducer and activator of transcription 3; assay: Inhibition of STAT3 in human DU145 cells assessed as ratio of survivin protein level to tubulin protein level at 5 uM after 48 hrs by Western blot analysis (reference value: 1); type: cell-based
[22] = biological target: T1, Signal transducer and activator of transcription 3; assay: Inhibition of STAT3 phosphorylation in human LNCAP cells assessed as ratio of phosphorylated STAT3 protein level to GAPDH protein level at 5 uM after 12 hrs by Western blot analysis (reference value: 1); type: cell-based
[23] = biological target: T1, Signal transducer and activator of transcription 3; assay: Inhibition of STAT3 in human DU145 cells assessed as ratio of cyclin A protein level to tubulin protein level at 5 uM after 48 hrs by Western blot analysis (reference value: 1); type: cell-based
DU-145 [24] = assay: Effect on total ERK1/2 protein level in human DU145 cells assessed as ratio of ERK1/2 protein level to GAPDH protein level at 5 uM after 3 hrs by Western blot analysis (reference value: 1); type: ADME, cell-based; conditions: du-145, 3 h
DU-145 [25] = assay: Cell cycle arrest in human DU145 cells assessed as accumulation at G0/G1 phase at 5 uM after 48 hrs by flow cytometry (reference value: 24.07%); type: functional
[26] = biological target: T1, Signal transducer and activator of transcription 3; assay: Inhibition of STAT3-induced ERK1/2 phosphorylation in human DU145 cells assessed as ratio of phosphorylated ERK1/2 protein level to GAPDH protein level at 5 uM after 0.5 hrs by Western blot analysis (reference value: 1); type: cell-based
[27] = biological target: T1, Signal transducer and activator of transcription 3; assay: Binding affinity to STAT3 in human DU145 cell lysates assessed as reduction in pronase-induced STAT3 digestion by measuring ratio of STAT3 protein level to GAPDH protein level at 1 uM incubated for 1 hr followed by 0.05% pronase addition for 10 mins by Western blot analysis (reference value: 1)
DU-145 [28] = assay: Cell cycle arrest in human DU145 cells assessed as accumulation at G0/G1 phase at 5 uM after 12 hrs by flow cytometry (reference value: 24.07%); type: functional
[29] = biological target: T1, Signal transducer and activator of transcription 3; assay: Inhibition of STAT3 (unknown origin) expressed in human HCT116 cells after 24 hrs by dual-luciferase reporter gene assay; type: cell-based

T1 sequence (P40763 whole entry): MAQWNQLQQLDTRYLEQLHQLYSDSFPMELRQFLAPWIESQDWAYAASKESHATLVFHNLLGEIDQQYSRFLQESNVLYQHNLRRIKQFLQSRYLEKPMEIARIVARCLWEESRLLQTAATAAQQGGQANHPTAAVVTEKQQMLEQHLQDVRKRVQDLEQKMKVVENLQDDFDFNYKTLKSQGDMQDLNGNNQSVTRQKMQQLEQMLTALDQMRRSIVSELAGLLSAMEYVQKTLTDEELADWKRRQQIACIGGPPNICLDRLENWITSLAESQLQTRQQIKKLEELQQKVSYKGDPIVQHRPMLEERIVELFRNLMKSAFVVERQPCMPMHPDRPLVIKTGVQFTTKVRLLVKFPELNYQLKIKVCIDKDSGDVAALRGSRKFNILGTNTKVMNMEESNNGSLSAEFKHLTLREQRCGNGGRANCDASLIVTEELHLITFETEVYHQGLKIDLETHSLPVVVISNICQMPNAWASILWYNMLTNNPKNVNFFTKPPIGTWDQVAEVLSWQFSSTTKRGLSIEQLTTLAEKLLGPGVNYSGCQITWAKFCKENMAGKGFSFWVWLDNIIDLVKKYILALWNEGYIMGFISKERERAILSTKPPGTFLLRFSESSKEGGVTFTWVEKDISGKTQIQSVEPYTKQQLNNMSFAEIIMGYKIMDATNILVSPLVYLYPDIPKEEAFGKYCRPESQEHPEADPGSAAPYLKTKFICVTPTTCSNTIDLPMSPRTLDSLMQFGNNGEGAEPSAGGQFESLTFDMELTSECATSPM

C=C(C)C(=O)N(Cc1ccc(Br)cc1)C(=O)/C=C/c1cc(OC)c(OC)c(OC)c1
Ratio [1]: 0.2
Ratio [2]: 0.5
Ratio [3]: 0.5
Activity (DU-145 [4]): 21.05%
Activity (DU-145 [5]): 6.57%
Activity (DU-145 [6]): 7.61%
Ratio (LNCaP [7]): 1.1
Ratio [8]: 1.1
Ratio [9]: 0.3
Ratio [10]: 2.2
Ratio [11]: 2
GI50 (LNCaP [12]): 7.7 µM
Activity (DU-145 [13]): 8.27%
Ratio (DU-145 [14]): 1
Ratio (DU-145 [15]): 0.7
Activity (DU-145 [16]): 18.95%
Ratio [17]: 0.6
Ratio (DU-145 [18]): 1
Ratio (DU-145 [19]): 0.7
Ratio [20]: 0.9
Ratio [21]: 0.7
Ratio [22]: 1
Ratio [23]: 0.6
Ratio (DU-145 [24]): 1.1
Activity (DU-145 [25]): 26.59%
Ratio [26]: 1.6
Ratio [27]: 1.1
Activity (DU-145 [28]): 38.15%
IC50 [29]: 10 µM
inhibition [29]: Dose-dependent effect
